# Assays:
# Type in all cases: in vivo
# corn (Zea mays) [1] = experiment: Test G Pre-Emergence Protocol; settings: Zea mays, pre-emergence, 312 h, evaluated after 13 days; for plant injury at 15.625 g/ha: 15.625 g ai/ha; for plant injury at 15.625 g/ha / plant injury at 250 g/ha: read-out: Corn damage rating (100=total damage to plant; 0=no damage to plant); for plant injury at 62.5 g/ha: 62.5 g ai/ha, 100=total damage to plant, 0=no damage to plant, read-out: plant damage rating, Corn; for plant injury at 250 g/ha: 250 g ai/ha
# Outline: (§1)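 Pots of seeds in standard soil were grown for one day in a glasshouse (24/16 °C day/night, 14 h light, 65% humidity), then sprayed with compound in acetone/water 50:50 with 0.5% Tween 20 at 15.625, 62.5 or 250 g/ha. Damage was scored after 13 days on a 0 (none) to 100 (total) scale.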
# [2] = system: giant foxtail (Setaria faberi); experiment: Test G Pre-Emergence Protocol; settings: Setaria faberi, pre-emergence, 312 h, evaluated after 13 days; for pest or weed control at 15.625 g/ha: 15.625 g ai/ha; for pest or weed control at 15.625 g/ha / pest or weed control at 250 g/ha: read-out: Foxtail, Giant damage rating (100=total damage to plant; 0=no damage to plant); for pest or weed control at 62.5 g/ha: 62.5 g ai/ha, 100=total damage to plant, 0=no damage to plant, read-out: plant damage rating, Foxtail, Giant; for pest or weed control at 250 g/ha: 250 g ai/ha
# Outline: as §1
# [3] = system: redroot pigweed (Amaranthus retroflexus); experiment: Test G Pre-Emergence Protocol; settings: Amaranthus retroflexus, pre-emergence, 312 h, evaluated after 13 days; for pest or weed control at 15.625 g/ha: 15.625 g ai/ha; for pest or weed control at 15.625 g/ha / pest or weed control at 250 g/ha: read-out: Pigweed, Redroot damage rating (100=total damage to plant; 0=no damage to plant); for pest or weed control at 62.5 g/ha: 62.5 g ai/ha, 100=total damage to plant, 0=no damage to plant, read-out: plant damage rating, Pigweed, Redroot; for pest or weed control at 250 g/ha: 250 g ai/ha
# Outline: as §1
# [4] = system: barnyardgrass (Echinochloa crus-galli); experiment: Test G Pre-Emergence Protocol; settings: Echinochloa crus-galli, pre-emergence, 312 h, evaluated after 13 days; for pest or weed control at 15.625 g/ha: 15.625 g ai/ha, read-out: Barnyard grass damage rating (100=total damage to plant; 0=no damage to plant); for pest or weed control at 62.5 g/ha: 62.5 g ai/ha, 100=total damage to plant, 0=no damage to plant, read-out: plant damage rating, Barnyardgrass; for pest or weed control at 250 g/ha: 250 g ai/ha, read-out: Barnyardgrass damage rating (100=total damage to plant; 0=no damage to plant)
# Outline: as §1
# [5] = system: velvetleaf (Abutilon theophrasti); experiment: Test G Pre-Emergence Protocol; settings: Abutilon theophrasti, pre-emergence, 312 h, evaluated after 13 days; for pest or weed control at 15.625 g/ha: 15.625 g ai/ha; for pest or weed control at 15.625 g/ha / pest or weed control at 250 g/ha: read-out: Velvetleaf damage rating (100=total damage to plant; 0=no damage to plant); for pest or weed control at 62.5 g/ha: 62.5 g ai/ha, 100=total damage to plant, 0=no damage to plant, read-out: plant damage rating, Velvetleaf; for pest or weed control at 250 g/ha: 250 g ai/ha
# Outline: as §1
# [6] = system: ivy-leaved morning glory (Ipomoea hederacea); experiment: Test G Pre-Emergence Protocol; settings: Ipomoea, pre-emergence, 312 h, evaluated after 13 days; for pest or weed control at 15.625 g/ha: 15.625 g ai/ha, read-out: Morning-glory, Ivy-leaved damage rating (100=total damage to plant; 0=no damage to plant); for pest or weed control at 62.5 g/ha: 62.5 g ai/ha, 100=total damage to plant, 0=no damage to plant, read-out: plant damage rating, Morningglory, Ivy-leaved; for pest or weed control at 250 g/ha: 250 g ai/ha, read-out: Morningglory, Ivy-leaved damage rating (100=total damage to plant; 0=no damage to plant)
# Outline: as §1
# corn (Zea mays) [7] = experiment: Test G Post-Emergence Protocol; settings: Zea mays, post-emergence, 312 h; for plant injury at 15.625 g/ha: 15.625 g ai/ha, evaluated after 13 days (100=total damage to plant; 0=no damage to plant), read-out: Corn damage rating; for plant injury at 62.5 g/ha: 62.5 g ai/ha, read-out: Corn damage rating (100=total damage to plant; 0=no damage to plant); for plant injury at 62.5 g/ha / plant injury at 250 g/ha: evaluated after 13 days; for plant injury at 250 g/ha: 250 g ai/ha, read-out: damage to plant, Corn (100=total damage to plant; 0=no damage to plant)
# Outline: (§2)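 Post-emergence herbicidal damage, scored visually 0–100 at 13 days. Application at 15.625, 62.5 or 250 g/ha onto 8-day-old plants grown under glasshouse control.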
# [8] = system: giant foxtail (Setaria faberi); experiment: Test G Post-Emergence Protocol; settings: Setaria faberi, post-emergence, 312 h; for pest or weed control at 15.625 g/ha: 15.625 g ai/ha, evaluated after 13 days (100=total damage to plant; 0=no damage to plant), read-out: Foxtail, Giant damage rating; for pest or weed control at 62.5 g/ha: 62.5 g ai/ha, read-out: Foxtail, Giant damage rating (100=total damage to plant; 0=no damage to plant); for pest or weed control at 62.5 g/ha / pest or weed control at 250 g/ha: evaluated after 13 days; for pest or weed control at 250 g/ha: 250 g ai/ha, read-out: damage to plant, Foxtail, Giant (100=total damage to plant; 0=no damage to plant)
# Outline: as §2
# [9] = system: redroot pigweed (Amaranthus retroflexus); experiment: Test G Post-Emergence Protocol; settings: Amaranthus retroflexus, post-emergence, 312 h; for pest or weed control at 15.625 g/ha: 15.625 g ai/ha, evaluated after 13 days (100=total damage to plant; 0=no damage to plant), read-out: Pigweed, Redroot damage rating; for pest or weed control at 62.5 g/ha: 62.5 g ai/ha, read-out: Pigweed, Redroot damage rating (100=total damage to plant; 0=no damage to plant); for pest or weed control at 62.5 g/ha / pest or weed control at 250 g/ha: evaluated after 13 days; for pest or weed control at 250 g/ha: 250 g ai/ha, read-out: damage to plant, Pigweed, Redroot (100=total damage to plant; 0=no damage to plant)
# Outline: as §2
# [10] = system: barnyardgrass (Echinochloa crus-galli); experiment: Test G Post-Emergence Protocol; settings: Echinochloa crus-galli, post-emergence, 312 h; for pest or weed control at 15.625 g/ha: 15.625 g ai/ha, evaluated after 13 days (100=total damage to plant; 0=no damage to plant), read-out: Barnyardgrass damage rating; for pest or weed control at 62.5 g/ha: 62.5 g ai/ha, read-out: Barnyardgrass damage rating (100=total damage to plant; 0=no damage to plant); for pest or weed control at 62.5 g/ha / pest or weed control at 250 g/ha: evaluated after 13 days; for pest or weed control at 250 g/ha: 250 g ai/ha, read-out: damage to plant, Barnyardgrass (100=total damage to plant; 0=no damage to plant)
# Outline: as §2
# [11] = system: velvetleaf (Abutilon theophrasti); experiment: Test G Post-Emergence Protocol; settings: Abutilon theophrasti, post-emergence, 312 h; for pest or weed control at 15.625 g/ha: 15.625 g ai/ha, evaluated after 13 days (100=total damage to plant; 0=no damage to plant), read-out: Velvetleaf damage rating; for pest or weed control at 62.5 g/ha: 62.5 g ai/ha, read-out: Velvetleaf damage rating (100=total damage to plant; 0=no damage to plant); for pest or weed control at 62.5 g/ha / pest or weed control at 250 g/ha: evaluated after 13 days; for pest or weed control at 250 g/ha: 250 g ai/ha, read-out: damage to plant, Velvetleaf (100=total damage to plant; 0=no damage to plant)
# Outline: as §2
# [12] = system: ivy-leaved morning glory (Ipomoea hederacea); experiment: Test G Post-Emergence Protocol; settings: Ipomoea, post-emergence, 312 h; for pest or weed control at 15.625 g/ha: 15.625 g ai/ha, evaluated after 13 days (100=total damage to plant; 0=no damage to plant), read-out: Morningglory, Ivy-leaved damage rating; for pest or weed control at 62.5 g/ha: 62.5 g ai/ha, read-out: Morningglory, Ivy-leaved damage rating (100=total damage to plant; 0=no damage to plant); for pest or weed control at 62.5 g/ha / pest or weed control at 250 g/ha: evaluated after 13 days; for pest or weed control at 250 g/ha: 250 g ai/ha, read-out: damage to plant, Morningglory, Ivy-leaved (100=total damage to plant; 0=no damage to plant)
# Outline: as §2
SMILES,plant injury at 15.625 g/ha (corn (Zea mays) [1]) [%],plant injury at 62.5 g/ha (corn (Zea mays) [1]) [%],plant injury at 250 g/ha (corn (Zea mays) [1]) [%],pest or weed control at 15.625 g/ha [2] [%],pest or weed control at 62.5 g/ha [2] [%],pest or weed control at 250 g/ha [2] [%],pest or weed control at 15.625 g/ha [3] [%],pest or weed control at 62.5 g/ha [3] [%],pest or weed control at 250 g/ha [3] [%],pest or weed control at 15.625 g/ha [4] [%],pest or weed control at 62.5 g/ha [4] [%],pest or weed control at 250 g/ha [4] [%],pest or weed control at 15.625 g/ha [5] [%],pest or weed control at 62.5 g/ha [5] [%],pest or weed control at 250 g/ha [5] [%],pest or weed control at 15.625 g/ha [6] [%],pest or weed control at 62.5 g/ha [6] [%],pest or weed control at 250 g/ha [6] [%],plant injury at 15.625 g/ha (corn (Zea mays) [7]) [%],plant injury at 62.5 g/ha (corn (Zea mays) [7]) [%],also measured
C#Cc1ccccc1NC(=O)[C@H]1C(=O)N(C)C[C@@H]1c1ccc(C(F)(F)F)cc1 (racemic) [Compound 1422],0,0,0,0,10,50,0,0,0,0,0,0,0,0,0,0,0,0,10,10,plant injury at 250 g/ha (corn (Zea mays) [7]): 0%; pest or weed control at 15.625 g/ha [8]: 0%; pest or weed control at 62.5 g/ha [8]: 0%; pest or weed control at 250 g/ha [8]: 20%; pest or weed control at 15.625 g/ha [9]: 0%; pest or weed control at 62.5 g/ha [9]: 0%; pest or weed control at 250 g/ha [9]: 0%; pest or weed control at 15.625 g/ha [10]: 0%; pest or weed control at 62.5 g/ha [10]: 0%; pest or weed control at 250 g/ha [10]: 0%; pest or weed control at 15.625 g/ha [11]: 0%; pest or weed control at 62.5 g/ha [11]: 0%; pest or weed control at 250 g/ha [11]: 0%; pest or weed control at 15.625 g/ha [12]: 0%; pest or weed control at 62.5 g/ha [12]: 0%; pest or weed control at 250 g/ha [12]: 0%
CN1C[C@@H](c2ccc(C(F)(F)F)cc2)[C@H](C(=O)Nc2ccc(Cl)nc2)C1=O (racemic) [Compound 1525],0,0,0,0,10,30,0,0,0,0,0,40,0,0,0,0,0,0,0,0,plant injury at 250 g/ha (corn (Zea mays) [7]): 10%; pest or weed control at 15.625 g/ha [8]: 0%; pest or weed control at 62.5 g/ha [8]: 0%; pest or weed control at 250 g/ha [8]: 10%; pest or weed control at 15.625 g/ha [9]: 0%; pest or weed control at 62.5 g/ha [9]: 0%; pest or weed control at 250 g/ha [9]: 0%; pest or weed control at 15.625 g/ha [10]: 0%; pest or weed control at 62.5 g/ha [10]: 0%; pest or weed control at 250 g/ha [10]: 0%; pest or weed control at 15.625 g/ha [11]: 0%; pest or weed control at 62.5 g/ha [11]: 0%; pest or weed control at 250 g/ha [11]: 0%; pest or weed control at 15.625 g/ha [12]: 0%; pest or weed control at 62.5 g/ha [12]: 0%; pest or weed control at 250 g/ha [12]: 20%

# Reference: patent US12077503B2, “Substituted cyclic amides and their use as herbicides” (FMC CORPORATION, priority 2015, dated 2024)
